Article PMC10741037, “A Peptoid-Chelator Selective to Cu^2+ That Can Extract Copper from Metallothionein-2 and Lead to the Production of ROS” (Antioxidants, 2023)

Assay: Kinetics of ascorbate consumption assay (ROS production)
Format: biochemical
Details: MT-2 + Cu2+ + Asc; [MT-2] = 1.6 μM, [Cu2+] = 9 μM, [Asc] = 100 μM, HEPES 10 mM pH = 7.4, absorbance at 265 nm
Protocol: Reagents, except the peptoid and protein, were commercially available and were used as received. All the solutions were prepared in milliQ water (resistance: 18.2 MΩ) immediately before experiments. A stock solution of HEPES buffer was prepared at 500 mm, pH = 7.4, and then diluted to 10 mM. Sodium ascorbate was prepared at 5 mm each day because of the quick degradation of the ascorbate. All pH values are given with a ±0.2 pH unit error. UV/Vis kinetics and ROS kinetic experiments were recorded with a spectrophotometer Agilent Cary 60 UV/Vis spectrophotometer (Agilent Technologies, Mulgrave, Australia), a double-beam, Czerny–Turner monochromator with external stirrer of cuvette holder, in 1 cm path-length quartz cuvettes, with 800 rpm stirring. The samples were prepared from stock solutions of MT-2, TB, Cu^2+, diluted to 1.6, 10, and 9 µM, respectively, in 10 mM HEPES solution, pH = 7.4. Ascorbate was diluted to 100 µM. […]
First, we investigated whether CuTB can produce ROS by itself. In a typical experiment, 1 equiv. of TB was mixed with 0.9 equiv. of Cu^2+ in HEPES buffer (10 mM, pH = 7.4) in a quartz cuvette under aerobic conditions, and after the formation of the metallopeptoid was confirmed by the stability of its UV/Vis spectrum, sodium ascorbate (Asc) was added to the cuvette and the changes in the absorbance at 265 nm were monitored by UV/Vis (ε = 14,500 M^−1 cm^−1). […]

Substance: CuMT-2: complex of metallothionein-2 (MT-2) with 6 equiv. of Cu2+
- ascorbate consumption / redox activity: redox silent
